Measurements from article PMC11643494, “Structure–Activity Relationship Studies in a Series of 2-Aryloxy-N-(pyrimidin-5-yl)acetamide Inhibitors of SLACK Potassium Channels” (Molecules, 2024).

Columns and labels:
Assay type in all cases: cell-based
hERG = target: T1, hERG (Homo sapiens, UniProt Q12809); test: Tl+-flux assay in HEK-293 cells, hERG; settings: HEK293 cells stably expressing hERG, pH 7.3, 10 µM test compound, relative to control bepridil, read-out: Percent Inhibition ± SEM, hERG
T1 construct: expressed in transfected cells; host or cells: HEK293
T1 sequence (Q12809 whole entry): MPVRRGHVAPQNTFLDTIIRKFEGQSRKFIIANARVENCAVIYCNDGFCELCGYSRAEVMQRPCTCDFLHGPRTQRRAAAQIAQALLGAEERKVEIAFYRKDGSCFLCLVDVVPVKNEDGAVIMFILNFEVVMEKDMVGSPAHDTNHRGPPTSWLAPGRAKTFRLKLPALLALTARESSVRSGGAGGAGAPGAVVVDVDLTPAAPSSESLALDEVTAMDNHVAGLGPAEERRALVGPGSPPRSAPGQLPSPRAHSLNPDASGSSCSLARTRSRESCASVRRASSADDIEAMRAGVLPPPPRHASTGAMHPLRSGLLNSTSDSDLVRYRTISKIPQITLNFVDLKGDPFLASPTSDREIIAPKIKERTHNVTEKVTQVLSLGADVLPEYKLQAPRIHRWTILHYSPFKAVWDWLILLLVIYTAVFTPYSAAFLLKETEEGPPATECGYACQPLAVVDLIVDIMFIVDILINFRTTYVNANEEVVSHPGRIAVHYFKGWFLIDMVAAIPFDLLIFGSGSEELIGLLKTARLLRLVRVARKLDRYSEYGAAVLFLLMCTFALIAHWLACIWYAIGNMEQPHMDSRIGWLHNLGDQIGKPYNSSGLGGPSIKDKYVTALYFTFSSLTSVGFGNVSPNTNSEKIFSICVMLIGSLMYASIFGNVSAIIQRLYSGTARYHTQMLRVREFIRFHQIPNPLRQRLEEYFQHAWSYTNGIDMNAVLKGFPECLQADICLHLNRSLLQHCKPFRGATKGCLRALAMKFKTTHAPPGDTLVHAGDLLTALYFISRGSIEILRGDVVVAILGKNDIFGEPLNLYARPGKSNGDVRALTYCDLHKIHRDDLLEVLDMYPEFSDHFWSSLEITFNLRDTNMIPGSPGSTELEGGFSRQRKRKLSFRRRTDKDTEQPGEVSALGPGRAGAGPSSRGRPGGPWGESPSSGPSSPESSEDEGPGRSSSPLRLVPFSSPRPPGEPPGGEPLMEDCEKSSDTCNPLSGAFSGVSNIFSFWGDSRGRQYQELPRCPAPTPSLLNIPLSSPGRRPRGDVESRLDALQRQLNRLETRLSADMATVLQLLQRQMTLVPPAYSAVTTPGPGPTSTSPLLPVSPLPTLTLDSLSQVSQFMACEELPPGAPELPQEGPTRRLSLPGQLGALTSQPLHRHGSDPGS
Description: (§1) Having executed our plan to prepare analogs across the identified regions of the chemotype (Figure 2), we identified two analogs for further profiling and evaluation. […] Desiring to add a second compound with some measure of structural differences, we also chose another submicromolar SLACK inhibitor 66 (VU0936154). Whereas 40 contains an ether linker and a halogenated phenyl group in the eastern region, […] contains an N-methyl linker and a phenyl group with a more polar cyano substituent. We first screened these analogs at 10 µM versus our in-house panel of ion channel targets using Tl^+-flux assays in HEK-293 cells expressing the human target of interest. […] Included in this set are Slo family members SLICK and two isoforms of Maxi-K, as well as several different K^+, Na^+, and Ca^2+ channels (Table 6). […] Of note was the excellent selectivity versus the broader panel of targets for both compounds, including versus the hERG channel.
(§2) Stably transfected monoclonal HEK293 cell lines expressing SLICK, Maxi-K α1/β3, Maxi-K α1/β4, CaV3.2, GIRK 1/2, KV2.1, KV7.2, NaV1.7, and TASK-1 were generated as previously described. […]
(§3) The Tl^+ flux assays were conducted as previously described, with modifications optimized for individual cell lines as described below. […] Cell plates were then loaded onto a Panoptic kinetic imaging plate reader (WaveFront Biosciences, Franklin, TN, USA). […]

NaV1.7 = target: T2, NaV1.7 (Homo sapiens, UniProt Q15858); test: Tl+-flux assay in HEK-293 cells, NaV1.7; settings: HEK293; 10 µM test compound; relative to control TC-N 1752; read-out: Percent Inhibition ± SEM, NaV1.7
T2 construct: expressed in transfected cells; host or cells: HEK293
T2 sequence (Q15858 whole entry): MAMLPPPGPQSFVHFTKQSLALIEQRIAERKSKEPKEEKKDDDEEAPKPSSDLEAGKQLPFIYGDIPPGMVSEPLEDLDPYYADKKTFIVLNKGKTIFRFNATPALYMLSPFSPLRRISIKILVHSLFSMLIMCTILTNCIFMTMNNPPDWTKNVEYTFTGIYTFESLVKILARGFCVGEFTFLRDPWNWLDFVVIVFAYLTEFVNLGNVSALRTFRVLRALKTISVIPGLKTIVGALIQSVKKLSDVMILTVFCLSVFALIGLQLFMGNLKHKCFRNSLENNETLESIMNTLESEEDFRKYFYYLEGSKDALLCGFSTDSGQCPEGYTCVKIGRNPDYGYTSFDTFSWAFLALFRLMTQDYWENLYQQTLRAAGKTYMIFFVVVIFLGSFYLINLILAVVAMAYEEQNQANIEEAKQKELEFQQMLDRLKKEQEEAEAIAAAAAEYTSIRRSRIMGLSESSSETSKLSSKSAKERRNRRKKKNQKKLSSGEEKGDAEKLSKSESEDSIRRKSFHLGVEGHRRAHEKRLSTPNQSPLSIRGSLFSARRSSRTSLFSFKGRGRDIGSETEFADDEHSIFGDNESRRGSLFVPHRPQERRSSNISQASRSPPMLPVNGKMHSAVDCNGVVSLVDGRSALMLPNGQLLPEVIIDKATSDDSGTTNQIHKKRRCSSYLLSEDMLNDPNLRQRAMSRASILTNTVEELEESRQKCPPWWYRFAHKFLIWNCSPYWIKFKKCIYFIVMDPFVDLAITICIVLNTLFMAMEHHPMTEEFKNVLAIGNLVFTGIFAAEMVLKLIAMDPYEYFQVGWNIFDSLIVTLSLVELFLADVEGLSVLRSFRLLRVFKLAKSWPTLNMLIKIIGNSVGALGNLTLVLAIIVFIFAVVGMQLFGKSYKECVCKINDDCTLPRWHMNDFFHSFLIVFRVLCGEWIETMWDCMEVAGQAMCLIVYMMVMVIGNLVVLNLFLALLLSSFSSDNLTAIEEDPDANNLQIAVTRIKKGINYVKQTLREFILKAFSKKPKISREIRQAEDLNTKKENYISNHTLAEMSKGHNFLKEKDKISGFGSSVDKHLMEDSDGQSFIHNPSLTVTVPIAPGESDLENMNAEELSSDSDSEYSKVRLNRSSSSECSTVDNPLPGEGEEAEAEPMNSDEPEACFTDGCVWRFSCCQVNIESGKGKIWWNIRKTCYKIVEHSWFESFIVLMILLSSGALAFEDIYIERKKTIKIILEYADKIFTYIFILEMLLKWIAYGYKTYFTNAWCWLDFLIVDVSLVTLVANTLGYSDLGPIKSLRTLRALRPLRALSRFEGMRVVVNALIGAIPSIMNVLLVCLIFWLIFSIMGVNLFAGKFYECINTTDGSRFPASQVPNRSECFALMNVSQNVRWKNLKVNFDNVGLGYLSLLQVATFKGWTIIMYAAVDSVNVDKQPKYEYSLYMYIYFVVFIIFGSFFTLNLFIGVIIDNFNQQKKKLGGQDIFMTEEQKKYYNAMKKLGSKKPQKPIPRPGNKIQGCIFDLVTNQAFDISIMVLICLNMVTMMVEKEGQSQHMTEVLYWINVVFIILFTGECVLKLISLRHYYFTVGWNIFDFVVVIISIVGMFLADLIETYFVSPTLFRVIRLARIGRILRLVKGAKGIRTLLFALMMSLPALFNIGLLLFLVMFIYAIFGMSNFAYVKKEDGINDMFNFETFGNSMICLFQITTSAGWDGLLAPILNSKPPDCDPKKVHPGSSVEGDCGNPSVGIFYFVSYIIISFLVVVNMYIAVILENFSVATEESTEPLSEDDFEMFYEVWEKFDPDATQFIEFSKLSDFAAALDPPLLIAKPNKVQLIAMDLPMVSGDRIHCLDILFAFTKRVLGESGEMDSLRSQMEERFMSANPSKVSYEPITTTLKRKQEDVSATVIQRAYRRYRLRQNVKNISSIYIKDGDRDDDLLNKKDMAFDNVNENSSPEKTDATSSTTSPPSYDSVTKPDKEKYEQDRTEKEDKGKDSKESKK
Description: as §1, §2, §3

TASK-1 = target: T3, TASK-1 (Homo sapiens, UniProt O14649); test: Tl+-flux assay in HEK-293 cells, TASK-1; settings: HEK293; 10 µM test compound; relative to control bepridil; read-out: Percent Inhibition ± SEM, TASK-1
T3 construct: expressed in transfected cells; host or cells: HEK293
T3 sequence (O14649 whole entry): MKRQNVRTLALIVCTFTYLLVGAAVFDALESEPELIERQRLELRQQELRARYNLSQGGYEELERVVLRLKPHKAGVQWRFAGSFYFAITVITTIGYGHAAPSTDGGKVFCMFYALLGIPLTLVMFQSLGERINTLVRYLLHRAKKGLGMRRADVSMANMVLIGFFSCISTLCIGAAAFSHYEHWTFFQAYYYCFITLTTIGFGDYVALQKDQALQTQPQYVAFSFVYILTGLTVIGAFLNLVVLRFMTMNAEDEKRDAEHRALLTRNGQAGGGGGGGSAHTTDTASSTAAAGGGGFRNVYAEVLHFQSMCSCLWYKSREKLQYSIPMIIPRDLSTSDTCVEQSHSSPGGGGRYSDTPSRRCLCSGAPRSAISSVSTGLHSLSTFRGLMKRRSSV
Description: as §1, §2, §3

GIRK 1/2 = target: T4, GIRK 1/2 (Homo sapiens, UniProt P48051+P48549); test: Tl+-flux assay in HEK-293 cells, GIRK 1/2; settings: HEK293; 10 µM test compound; relative to control SCH23390; read-out: Percent Inhibition ± SEM, GIRK 1/2
T4 construct: expressed in transfected cells; host or cells: HEK293
T4 sequence (P48549 whole entry): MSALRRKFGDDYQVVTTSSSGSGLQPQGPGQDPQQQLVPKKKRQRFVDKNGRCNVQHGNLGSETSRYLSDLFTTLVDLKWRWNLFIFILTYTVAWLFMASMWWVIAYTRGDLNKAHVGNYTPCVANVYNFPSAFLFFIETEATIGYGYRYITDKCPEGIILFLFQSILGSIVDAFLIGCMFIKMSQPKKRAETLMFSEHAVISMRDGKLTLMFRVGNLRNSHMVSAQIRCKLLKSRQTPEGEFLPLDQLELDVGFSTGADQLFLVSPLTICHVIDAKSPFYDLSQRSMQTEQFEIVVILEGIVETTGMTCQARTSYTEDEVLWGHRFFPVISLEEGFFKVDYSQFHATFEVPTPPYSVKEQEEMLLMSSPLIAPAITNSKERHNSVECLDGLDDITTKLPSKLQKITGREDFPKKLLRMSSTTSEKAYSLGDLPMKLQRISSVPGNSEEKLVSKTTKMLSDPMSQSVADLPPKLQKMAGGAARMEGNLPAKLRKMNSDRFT
T4 sequence (P48051 whole entry): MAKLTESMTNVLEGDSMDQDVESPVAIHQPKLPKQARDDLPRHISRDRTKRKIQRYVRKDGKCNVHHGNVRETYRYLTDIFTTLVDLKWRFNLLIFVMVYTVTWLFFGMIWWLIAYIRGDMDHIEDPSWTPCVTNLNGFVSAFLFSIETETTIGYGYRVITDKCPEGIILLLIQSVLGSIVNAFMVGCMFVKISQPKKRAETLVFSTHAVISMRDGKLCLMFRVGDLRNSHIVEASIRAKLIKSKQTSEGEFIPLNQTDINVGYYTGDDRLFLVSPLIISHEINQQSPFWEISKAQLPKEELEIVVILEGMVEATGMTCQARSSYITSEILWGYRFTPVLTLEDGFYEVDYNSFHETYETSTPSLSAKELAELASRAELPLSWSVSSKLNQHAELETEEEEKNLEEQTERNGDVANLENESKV
Description: as §1, §2, §3

CN(c1ccc(C#N)cc1)c1ncc(NC(=O)C(C)(C)Oc2ccc(Cl)cc2)cn1 [Analog 66]
inhibition at 120 s, 10 µM (hERG): 13 ± 3.3%
inhibition at 10 µM (NaV1.7): 17 ± 1.8%
inhibition at 10 µM (TASK-1): 18 ± 2%
inhibition at 10 µM (GIRK 1/2): 6.4 ± 1.5%

CC(C)(Oc1ccc(Cl)cc1)C(=O)Nc1cnc(Oc2c(F)cccc2F)nc1 [Analog 40]
inhibition at 120 s, 10 µM (hERG): 0.9 ± 2.9%
inhibition at 10 µM (NaV1.7): 7.5 ± 1.7%
inhibition at 10 µM (TASK-1): 24 ± 3.7%
inhibition at 10 µM (GIRK 1/2): 6.8 ± 3.3%
